Measured values from patent publication US11214594B2, “Antimicrobial peptide having synergistic antibacterial effect with antibiotics on multidrug resistant bacteria, and use thereof” (priority 2016, dated 2022).
≈ marks a conversion by molar mass, not a printed value. Read-outs that look alike come from different tables or passages of the source. Where a SMILES comes first, the peptide text is derived from it. [ ]: non-standard residue; d: D form.

Tests used:
MDRPA 2002 = assay type: cell-based, Pseudomonas aeruginosa
Method in brief: (§1)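 Each strain is brought to 2×10^6 CFU in nutrient-sufficient Mueller-Hinton medium and dispensed into wells. Peptide solutions, stepwise diluted 2:1 in the same medium, are then added. The minimal concentration preventing growth gives the MIC.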

MDRPA 2003 = assay type: cell-based, Pseudomonas aeruginosa
Method in brief: as §1

A. baumannii [1] = test: microbe, parasite or virus in culture; assay type: cell-based, Acinetobacter baumannii
Method in brief: as §1

MDRAB 12035 [2] = test: microbe, parasite or virus in culture; assay type: cell-based, Acinetobacter baumannii
Method in brief: as §1

B. subtilis = test: microbe, parasite or virus in culture; assay type: cell-based, Bacillus subtilis
Method in brief: as §1

A. baumannii [3] = test: MIC of antibiotic during combined treatment with antimicrobial peptide; assay type: cell-based, Acinetobacter baumannii; conditions: for Antibiotic MIC, Erythromycin / Antibiotic MIC, Linezolid / Antibiotic MIC, Vancomycin: A. baumannii
Method in brief: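 Checkerboard-type MIC of peptide–antibiotic mixtures in MH medium: the antibiotic was serially diluted in MH medium and added to wells, then the reversed arrangement was also tested.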

MDRAB 12035 [4] = test: as above; assay type: cell-based, Acinetobacter baumannii
Method in brief: (§2)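 Strains in MH medium at 2×10^6 CFU/ml were mixed with peptide diluted stepwise (2:1) from its MIC, then antibiotic dilutions in MH medium were added to give the antibiotic MIC. The reversed set-up, peptide titrated against fixed antibiotic, gave the peptide MIC.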

E. coli = assay type: cell-based, Escherichia coli; conditions: E. coli
Method in brief: as §2

MDREC 1229 = assay type: cell-based, Escherichia coli
Method in brief: as §2

[5] = system: multi-drug resistant bacteria; test: MIC, summary statements for multi-drug resistant bacteria; assay type: cell-based
Method in brief: as §1

[6] = combined with peptide at 1 μg/ml
[7] = combined with peptide at 2 μg/ml
[8] = combined with peptide at 4 μg/ml
[9] = combined with peptide at 6 μg/ml
[10] = combined with peptide at 8 μg/ml
[11] = combined with peptide at 16 μg/ml
[12] = combined with peptide at 32 μg/ml
[13] = combined with peptide at 64 μg/ml
[14] = peptide treatment concentration 1 μg/ml
[15] = peptide treatment concentration 2 μg/ml
[16] = peptide treatment concentration 4 μg/ml
[17] = peptide treatment concentration 6 μg/ml
[18] = peptide treatment concentration 8 μg/ml
[19] = peptide treatment concentration 16 μg/ml
[20] = peptide treatment concentration 32 μg/ml
[21] = peptide treatment concentration 64 μg/ml

Structure (SMILES): CC[C@H](C)[C@H](NC(=O)[C@H](CCCCN)NC(=O)[C@H](Cc1c[nH]c2ccccc12)NC(=O)[C@@H](N)CCCNC(=N)N)C(=O)N[C@@H](Cc1ccccc1)C(=O)N[C@@H](CCCCN)C(=O)N[C@@H](CCCCN)C(=O)N[C@H](C(=O)N[C@H](CCCCN)C(=O)N[C@@H](CCCCN)C(=O)N[C@@H](CC(C)C)C(=O)N[C@@H](CC(C)C)C(=O)N[C@@H](Cc1c[nH]cn1)C(=O)N[C@@H](CCC(=O)O)C(=O)N[C@@H](C)C(=O)N[C@@H](CCCCN)C(=O)N[C@@H](CCCCN)C(=O)N[C@@H](Cc1c[nH]c2ccccc12)C(N)=O)[C@@H](C)CC [PapMA-20, RWK IFK KIk KLL HEA KKW-NH2] (H-RWKIFKKI[dK]KLLHEAKKW-NH2; N-terminus assumed)
- Minimal inhibitory concentration MIC (MDRPA 2002): 64 µg/mL (≈ 26.9 µM)
- Minimal inhibitory concentration MIC (MDRPA 2003): 64 µg/mL (≈ 26.9 µM)
- Minimal inhibitory concentration MIC (A. baumannii [1]): 16 µg/mL (≈ 6.72 µM)
- Peptide MIC, peptide alone (A. baumannii [1]): 16 µg/mL
- Antibacterial activity relative to PapMA-1 (A. baumannii [1]; A. baumannii and S. typhimurium): at least twice as high
- Minimal inhibitory concentration MIC (MDRAB 12035 [2]): 16 µg/mL (≈ 6.72 µM)
- Peptide MIC, peptide alone (MDRAB 12035 [2]): 16 µg/mL
- Minimal inhibitory concentration MIC (B. subtilis): >128 µg/mL
- Synergistic effect of antibacterial activity with existing antibiotics compared with PapMA-1 (A. baumannii [3]; A. baumannii and MDRAB 12035): higher level than the PapMA-1 peptide
- Antibiotic MIC, Erythromycin (A. baumannii [3]; [6]): 32 µg/mL
- Antibiotic MIC, Linezolid (A. baumannii [3]; [6]): >128 µg/mL
- Antibiotic MIC, Vancomycin (A. baumannii [3]; [6]): >128 µg/mL
- Antibiotic MIC, Erythromycin (A. baumannii [3]; [7]): 16 µg/mL
- Antibiotic MIC, Linezolid (A. baumannii [3]; [7]): 64 µg/mL
- Antibiotic MIC, Vancomycin (A. baumannii [3]; [7]): >128 µg/mL
- Antibiotic MIC, Erythromycin (A. baumannii [3]; [8]): 2 µg/mL
- Antibiotic MIC, Linezolid (A. baumannii [3]; [8]): 16 µg/mL
- Antibiotic MIC, Vancomycin (A. baumannii [3]; [8]): 32 µg/mL
- Antibiotic MIC, Erythromycin (A. baumannii [3]; [9]): 1 µg/mL
- Antibiotic MIC, Linezolid (A. baumannii [3]; [9]): 8 µg/mL
- Antibiotic MIC, Vancomycin (A. baumannii [3]; [9]): 8 µg/mL
- Antibiotic MIC, Erythromycin (A. baumannii [3]; [10]): 0.125 µg/mL
- Antibiotic MIC, Linezolid (A. baumannii [3]; [10]): 2 µg/mL
- Antibiotic MIC, Vancomycin (A. baumannii [3]; [10]): 2 µg/mL
- Antibiotic MIC, Erythromycin (A. baumannii [3]; [11]): 0 µg/mL
- Antibiotic MIC, Linezolid (A. baumannii [3]; [11]): 0 µg/mL
- Antibiotic MIC, Vancomycin (A. baumannii [3]; [11]): 0 µg/mL
- Antibiotic MIC, Erythromycin (A. baumannii [3]; [12]): 0 µg/mL
- Antibiotic MIC, Linezolid (A. baumannii [3]; [12]): 0 µg/mL
- Antibiotic MIC, Vancomycin (A. baumannii [3]; [12]): 0 µg/mL
- Antibiotic MIC, Erythromycin (A. baumannii [3]; [13]): 0 µg/mL
- Antibiotic MIC, Linezolid (A. baumannii [3]; [13]): 0 µg/mL
- Antibiotic MIC, Vancomycin (A. baumannii [3]; [13]): 0 µg/mL
- Erythromycin MIC during combined treatment with peptide (MDRAB 12035 [4]; [14]): 32 µg/mL
- Linezolid MIC during combined treatment with peptide (MDRAB 12035 [4]; [14]): >128 µg/mL
- Vancomycin MIC during combined treatment with peptide (MDRAB 12035 [4]; [14]): >128 µg/mL
- Erythromycin MIC during combined treatment with peptide (MDRAB 12035 [4]; [15]): 16 µg/mL
- Linezolid MIC during combined treatment with peptide (MDRAB 12035 [4]; [15]): 128 µg/mL
- Vancomycin MIC during combined treatment with peptide (MDRAB 12035 [4]; [15]): >128 µg/mL
- Erythromycin MIC during combined treatment with peptide (MDRAB 12035 [4]; [16]): 8 µg/mL
- Linezolid MIC during combined treatment with peptide (MDRAB 12035 [4]; [16]): 32 µg/mL
- Vancomycin MIC during combined treatment with peptide (MDRAB 12035 [4]; [16]): 64 µg/mL
- Erythromycin MIC during combined treatment with peptide (MDRAB 12035 [4]; [17]): 4 µg/mL
- Linezolid MIC during combined treatment with peptide (MDRAB 12035 [4]; [17]): 16 µg/mL
- Vancomycin MIC during combined treatment with peptide (MDRAB 12035 [4]; [17]): 16 µg/mL
- Erythromycin MIC during combined treatment with peptide (MDRAB 12035 [4]; [18]): 0.5 µg/mL
- Linezolid MIC during combined treatment with peptide (MDRAB 12035 [4]; [18]): 4 µg/mL
- Vancomycin MIC during combined treatment with peptide (MDRAB 12035 [4]; [18]): 4 µg/mL
- Erythromycin MIC during combined treatment with peptide (MDRAB 12035 [4]; [19]): 0 µg/mL
- Linezolid MIC during combined treatment with peptide (MDRAB 12035 [4]; [19]): 0 µg/mL
- Vancomycin MIC during combined treatment with peptide (MDRAB 12035 [4]; [19]): 0 µg/mL
- Erythromycin MIC during combined treatment with peptide (MDRAB 12035 [4]; [20]): 0 µg/mL
- Linezolid MIC during combined treatment with peptide (MDRAB 12035 [4]; [20]): 0 µg/mL
- Vancomycin MIC during combined treatment with peptide (MDRAB 12035 [4]; [20]): 0 µg/mL
- Erythromycin MIC during combined treatment with peptide (MDRAB 12035 [4]; [21]): 0 µg/mL
- Linezolid MIC during combined treatment with peptide (MDRAB 12035 [4]; [21]): 0 µg/mL
- Vancomycin MIC during combined treatment with peptide (MDRAB 12035 [4]; [21]): 0 µg/mL
- Peptide MIC (E. coli; with Erythromycin […] (Conc./MIC 1)): 0 µg/mL
- Peptide MIC (E. coli; with Linezolid […] (Conc./MIC 1)): 0 µg/mL
- Peptide MIC (E. coli; with Vancomycin 1024 μg/ml (Conc./MIC 1)): 0 µg/mL
- Peptide MIC during treatment with antibiotic (MDREC 1229; erythromycin 32 μg/ml (Conc./MIC 1/8)): 2 µg/mL
- Peptide MIC during treatment with antibiotic (MDREC 1229; erythromycin 64 μg/ml (Conc./MIC 1/4)): 2 µg/mL
- Peptide MIC during treatment with antibiotic (MDREC 1229; erythromycin […] (Conc./MIC 1)): 0 µg/mL
- Peptide MIC during treatment with antibiotic (MDREC 1229; erythromycin […] (Conc./MIC 1/2)): 1 µg/mL
- Peptide MIC during treatment with antibiotic (MDREC 1229; linezolid 64 μg/ml (Conc./MIC 1/8)): 2 µg/mL
- Peptide MIC during treatment with antibiotic (MDREC 1229; linezolid 512 μg/ml (Conc./MIC 1)): 0 µg/mL
- Peptide MIC during treatment with antibiotic (MDREC 1229; linezolid […] (Conc./MIC 1/2)): 1 µg/mL
- Peptide MIC during treatment with antibiotic (MDREC 1229; linezolid […] (Conc./MIC 1/4)): 2 µg/mL
- Peptide MIC during treatment with antibiotic (MDREC 1229; vancomycin 512 μg/ml (Conc./MIC 1/2)): 2 µg/mL
- Peptide MIC during treatment with antibiotic (MDREC 1229; vancomycin 1024 μg/ml (Conc./MIC 1)): 1 µg/mL
- Peptide MIC during treatment with antibiotic (MDREC 1229; vancomycin […] (Conc./MIC 1/4)): 4 µg/mL
- Peptide MIC during treatment with antibiotic (MDREC 1229; vancomycin […] (Conc./MIC 1/8)): 4 µg/mL
- Antibacterial activity relative to PapMA-1 [5]: twice to four times higher
